Laboratory results published in ChEMBL document CHEMBL2375219, “Discovery of new potential hits of Plasmodium falciparum enoyl-ACP reductase through ligand- and structure-based drug design approaches” (Bioorg Med Chem Lett, 2013).

Assay: Inhibition of Plasmodium falciparum enoyl-ACP reductase expressed in Escherichia coli BL21(DE3) assessed as inhibition of crotonyl-CoA reduction to butyryl-CoA by UV-Vis spectrophotometric analysis

| SMILES | pIC50 |
| --- | --- |
| O=C1/C(=C/c2cccc(O)c2)SC(=S)N1c1ccccc1 | 5.066 |
| O=C(O)c1ccc(/C=C2\SC(=S)N(c3ccc(O)cc3)C2=O)cc1 | 5.056 |
| O=C(O)c1ccc(/C=C2\SC(=S)N(c3ccccc3)C2=O)cc1 | 5.041 |
| COc1cccc(N2C(=O)/C(=C/c3ccc(C(=O)O)cc3)SC2=S)c1 | 5.009 |
| COc1cc(/C=C2\SC(=S)N(c3ccc([N+](=O)[O-])cc3)C2=O)cc(Cl)c1O | 5.004 |
| O=C(O)c1ccccc1/C=C1\SC(=S)N(c2cccc(Cl)c2)C1=O | 4.921 |
| Cc1ccc(N2C(=O)/C(=C/c3ccc(O)c(O)c3)SC2=S)c(C)c1 | 6.301 |
| O=C1/C(=C/c2ccc(O)c(O)c2)SC(=S)N1c1ccc(Cl)cc1 | 5.102 |
| COC(=O)c1ccc(N2C(=O)/C(=C/c3cccc(OC)c3)SC2=S)cc1 | 4.565 |
| Cc1ccc(N2C(=O)/C(=C/c3ccc(O)c(O)c3)SC2=S)cc1C | 6.602 |
| CCOc1cc(/C=C2\SC(=S)N(c3ccccc3C)C2=O)ccc1O | 5.022 |
| Cc1cccc(N2C(=O)/C(=C/c3ccc(O)c(Br)c3)SC2=S)c1 | 5.009 |
| CCOc1cc(/C=C2\SC(=S)N(c3ccc(Br)cc3)C2=O)ccc1O | 4.857 |
| O=C1/C(=C/c2ccc(O)c([N+](=O)[O-])c2)SC(=S)N1c1cccc2ccccc12 | 4.535 |
| O=C1/C(=C/c2ccc(O)cc2)SC(=S)N1c1ccc([N+](=O)[O-])cc1 | 5.387 |
| O=C1/C(=C/c2ccc(O)cc2)SC(=S)N1c1cccc(F)c1 | 5.066 |
| O=C1/C(=C/c2ccc(O)cc2)SC(=S)N1c1ccc(Cl)cc1 | 4.676 |
| COC(=O)c1ccc(/C=C2\SC(=S)N(c3cccc(O)c3)C2=O)cc1 | 5.081 |
| O=C1/C(=C/c2ccc([N+](=O)[O-])cc2)SC(=S)N1c1cccc(C(F)(F)F)c1 | 4.896 |
| COc1ccc(/C=C2\SC(=S)N(c3cccc(OC)c3)C2=O)cc1 | 4.879 |

More lines, now with the values ahead:

| pIC50 | SMILES |
| --- | --- |
| 4.73 | O=C1/C(=C/c2ccc(Cl)c([N+](=O)[O-])c2)SC(=S)N1c1cccc(Cl)c1 |
| 5.004 | O=C1/C(=C/c2cc(O)c(O)c(Br)c2)SC(=S)N1c1cccc(C(F)(F)F)c1 |
| 4.573 | O=C(O)c1ccccc1/C=C1\SC(=S)N(c2ccc(F)cc2)C1=O |
| 5.004 | COc1ccc(N2C(=O)/C(=C/c3ccc(OC)c(O)c3)SC2=S)cc1 |
| 5.041 | COc1cccc(N2C(=O)/C(=C/c3cccc(O)c3)SC2=S)c1 |
| 4.91 | COc1cccc(N2C(=O)/C(=C/c3ccc(O)cc3)SC2=S)c1 |
| 4.79 | O=C(O)c1ccc(/C=C2\SC(=S)N(c3ccccc3F)C2=O)cc1 |
| 6.097 | O=C1/C(=C/c2ccc(O)c(O)c2)SC(=S)N1c1cccc(Cl)c1 |
| 4.627 | COc1ccc(/C=C2\SC(=S)N(c3cccc([N+](=O)[O-])c3)C2=O)cc1Br |
| 5.081 | CCOc1ccc(N2C(=O)/C(=C/c3ccc(O)cc3)SC2=S)cc1 |
| 5.032 | O=C1/C(=C/c2ccc(O)cc2)SC(=S)N1c1ccccc1 |
| 4.955 | O=C1/C(=C/c2ccc(O)cc2)SC(=S)N1c1ccc(Br)cc1 |
| 4.833 | O=C1/C(=C/c2ccc([N+](=O)[O-])cc2)SC(=S)N1c1ccc(F)cc1 |
| 4.724 | CCOC(=O)c1ccc(/C=C2\SC(=S)N(c3cccc(Cl)c3)C2=O)cc1 |
| 5.06 | O=C(O)c1ccc(/C=C2\SC(=S)N(c3cccc(Cl)c3)C2=O)cc1 |
| 5.187 | COc1ccc(/C=C2\SC(=S)N(c3cccc(C(F)(F)F)c3)C2=O)cc1 |
